Patent US6339042B1, “Herbicidal N-cyclohexadienyl heteroaryloxyacetamides” (American Cyanamid Co., priority 1999, dated 2002)

What was measured:
Conditions in all cases: three weeks after treatment
[1] = tested on: Amaranthus tuberculatus; assay: Pre-emergence herbicidal evaluation, AMATA; format: in vivo
Source text: (§1) The treated pots are then placed on greenhouse benches, watered and cared for in accordance with conventional greenhouse procedures.

[2] = tested on: Alopecurus myosuroides; assay: Pre-emergence herbicidal evaluation, ALOMY; format: in vivo
Source text: as §1

[3] = tested on: Apera spica venti; assay: Pre-emergence herbicidal evaluation, APESV; format: in vivo
Source text: as §1

[4] = tested on: Echinochloa crus-galli; assay: Pre-emergence herbicidal evaluation, ECHCG; format: in vivo
Source text: as §1

[5] = tested on: Setaria viridis; assay: Pre-emergence herbicidal evaluation, SETVI; format: in vivo
Source text: as §1

[6] = tested on: Lolium perenne; assay: Pre-emergence herbicidal evaluation, LOLPE; format: in vivo
Source text: as §1

[7] = tested on: Triticum aestivum; assay: Pre-emergence herbicidal evaluation, TRZAW; format: in vivo
Source text: as §1

[8] = tested on: Hordeum vulgare; assay: Pre-emergence herbicidal evaluation, HORVW; format: in vivo
Source text: as §1

[9] = tested on: Zea mays; assay: Pre-emergence herbicidal evaluation, ZEAMX; format: in vivo
Source text: as §1

[10] = tested on: Glycine max; assay: Pre-emergence herbicidal evaluation, GLXMA; format: in vivo
Source text: as §1

[11] = tested on: Oryza sativum; assay: Pre-emergence herbicidal evaluation, ORYSA; format: in vivo
Source text: as §1

[12] = tested on: Amaranthus tuberculatus; assay: Post-emergence herbicidal evaluation, AMATA; format: in vivo
[13] = tested on: Galium aparine; assay: Post-emergence herbicidal evaluation, GALAP
Procedure: (§2) The compounds of the invention are tested for pre- and post-emergence herbicidal activity.
(§3) Each pot is examined three weeks after treatment and phytotoxicity is assessed according to the rating system set forth below.
(§4) These acetone solutions are diluted with water and the resulting formulations applied at dosage levels equivalent of about 0.4 to 0.1 kg per hectare of test compound per pot. After spraying the plants are placed on greenhouse benches and are cared for in the usual manner, commensurate with conventional greenhouse practices.

[14] = tested on: Alopecurus myosuroides; assay: Post-emergence herbicidal evaluation, ALOMY
Procedure: as §2, §3, §4

[15] = tested on: Apera spica venti; assay: Post-emergence herbicidal evaluation, APESV
[16] = tested on: Echinochloa crus-galli; assay: Post-emergence herbicidal evaluation, ECHCG
[17] = tested on: Setaria viridis; assay: Post-emergence herbicidal evaluation, SETVI
[18] = tested on: Lolium perenne; assay: Post-emergence herbicidal evaluation, LOLPE
[19] = tested on: Triticum aestivum; assay: Post-emergence herbicidal evaluation, TRZAW
[20] = tested on: Hordeum vulgare; assay: Post-emergence herbicidal evaluation, HORVW
Procedure: as §3, §4

[21] = tested on: Zea mays; assay: Post-emergence herbicidal evaluation, ZEAMX
[22] = tested on: Glycine max; assay: Post-emergence herbicidal evaluation, GLXMA
Procedure: as §3, §4

[23] = tested on: Oryza sativum; assay: Post-emergence herbicidal evaluation, ORYSA
Procedure: as §2, §3, §4

CCc1nnc(OCC(=O)N(C)C2=CC(C)(C)CC(C)=C2)s1 [Example 5]
0 (0 - No effect): phytotoxicity rating AMATA ([1]; 0.100 kg/ha) | phytotoxicity rating AMATA ([1]; 0.200 kg/ha) | phytotoxicity rating SETVI ([5]; 0.100 kg/ha) | phytotoxicity rating TRZAW ([7]; 0.100 kg/ha) | phytotoxicity rating TRZAW ([7]; 0.200 kg/ha) | phytotoxicity rating HORVW ([8]; 0.100 kg/ha) | phytotoxicity rating ZEAMX ([9]; 0.100 kg/ha) | phytotoxicity rating ZEAMX ([9]; 0.200 kg/ha) | phytotoxicity rating ZEAMX ([9]; 0.400 kg/ha) | phytotoxicity rating GLXMA ([10]; 0.100 kg/ha) | phytotoxicity rating GLXMA ([10]; 0.200 kg/ha) | phytotoxicity rating GLXMA ([10]; 0.400 kg/ha) | phytotoxicity rating AMATA ([12]; 0.100 kg/ha) | phytotoxicity rating AMATA ([12]; 0.200 kg/ha) | phytotoxicity rating GALAP ([13]; 0.100 kg/ha) | phytotoxicity rating GALAP ([13]; 0.200 kg/ha) | phytotoxicity rating ALOMY ([14]; 0.100 kg/ha) | phytotoxicity rating APESV ([15]; 0.100 kg/ha) | phytotoxicity rating APESV ([15]; 0.200 kg/ha) | phytotoxicity rating ECHCG ([16]; 0.100 kg/ha) | phytotoxicity rating ECHCG ([16]; 0.200 kg/ha) | phytotoxicity rating ECHCG ([16]; 0.400 kg/ha) | phytotoxicity rating SETVI ([17]; 0.100 kg/ha) | phytotoxicity rating SETVI ([17]; 0.200 kg/ha) | phytotoxicity rating SETVI ([17]; 0.400 kg/ha) | phytotoxicity rating LOLPE ([18]; 0.100 kg/ha) | phytotoxicity rating TRZAW ([19]; 0.100 kg/ha) | phytotoxicity rating TRZAW ([19]; 0.200 kg/ha) | phytotoxicity rating HORVW ([20]; 0.100 kg/ha) | phytotoxicity rating HORVW ([20]; 0.200 kg/ha) | phytotoxicity rating HORVW ([20]; 0.400 kg/ha) | phytotoxicity rating ZEAMX ([21]; 0.100 kg/ha) | phytotoxicity rating ZEAMX ([21]; 0.200 kg/ha) | phytotoxicity rating ZEAMX ([21]; 0.400 kg/ha) | phytotoxicity rating ORYSA ([23]; 0.100 kg/ha)
8 (8 - Approaching complete kill): phytotoxicity rating ALOMY ([2]; 0.200 kg/ha) | phytotoxicity rating ECHCG ([4]; 0.400 kg/ha)
4 (4 - Injury): phytotoxicity rating HORVW ([8]; 0.800 kg/ha) | phytotoxicity rating ORYSA ([11]; 0.400 kg/ha) | phytotoxicity rating GALAP ([13]; 0.400 kg/ha) | phytotoxicity rating LOLPE ([18]; 0.400 kg/ha)
1 (1 - Trace effect): phytotoxicity rating AMATA ([1]; 0.400 kg/ha) | phytotoxicity rating TRZAW ([7]; 0.400 kg/ha) | phytotoxicity rating TRZAW ([7]; 0.800 kg/ha) | phytotoxicity rating GLXMA ([10]; 0.800 kg/ha) | phytotoxicity rating ORYSA ([11]; 0.100 kg/ha) | phytotoxicity rating APESV ([15]; 0.400 kg/ha) | phytotoxicity rating LOLPE ([18]; 0.200 kg/ha) | phytotoxicity rating TRZAW ([19]; 0.400 kg/ha) | phytotoxicity rating ORYSA ([23]; 0.200 kg/ha) | phytotoxicity rating ORYSA ([23]; 0.400 kg/ha)
9 (9 - Complete kill): phytotoxicity rating ALOMY ([2]; 0.400 kg/ha) | phytotoxicity rating ALOMY ([2]; 0.800 kg/ha) | phytotoxicity rating ECHCG ([4]; 0.800 kg/ha) | phytotoxicity rating SETVI ([5]; 0.800 kg/ha)
7 (7 - Good herbicidal effect): phytotoxicity rating APESV ([3]; 0.800 kg/ha) | phytotoxicity rating ECHCG ([4]; 0.200 kg/ha) | phytotoxicity rating SETVI ([5]; 0.400 kg/ha) | phytotoxicity rating LOLPE ([6]; 0.800 kg/ha) | phytotoxicity rating ALOMY ([14]; 0.400 kg/ha)
2 (2 - Slight effect): phytotoxicity rating ECHCG ([4]; 0.100 kg/ha) | phytotoxicity rating HORVW ([8]; 0.200 kg/ha) | phytotoxicity rating ORYSA ([11]; 0.200 kg/ha) | phytotoxicity rating ALOMY ([14]; 0.200 kg/ha)
5 (5 - Definite injury): phytotoxicity rating LOLPE ([6]; 0.100 kg/ha) | phytotoxicity rating LOLPE ([6]; 0.200 kg/ha) | phytotoxicity rating LOLPE ([6]; 0.400 kg/ha) | phytotoxicity rating ORYSA ([11]; 0.800 kg/ha) | phytotoxicity rating GLXMA ([22]; 0.100 kg/ha) | phytotoxicity rating GLXMA ([22]; 0.200 kg/ha) | phytotoxicity rating GLXMA ([22]; 0.400 kg/ha)
6 (6 - Herbicidal effect): phytotoxicity rating ZEAMX ([9]; 0.800 kg/ha)
3 (3 - Moderate effect): phytotoxicity rating AMATA ([1]; 0.800 kg/ha) | phytotoxicity rating ALOMY ([2]; 0.100 kg/ha) | phytotoxicity rating APESV ([3]; 0.400 kg/ha) | phytotoxicity rating SETVI ([5]; 0.200 kg/ha) | phytotoxicity rating HORVW ([8]; 0.400 kg/ha) | phytotoxicity rating AMATA ([12]; 0.400 kg/ha)
